Measured values from patent US5338548A, “Method for increasing the storage stability of physostigmine” (priority 1993, dated 1994).
Where “and” joins values, the source holds several entries; their conditions need not be identical. Equal values may be shown once. Entries after “also recorded” stand apart in the source; their conditions may differ.

What was measured:
[1] = tablets, oral dosage; cited from earlier work
[2] = tested on: tardive dyskinesia; conditions: American Journal of Psychiatry, 134(7), 769-774; cited from earlier work
[3] = tested on: long-term memory; conditions: Davis et al., Science 201, 272 (1978); cited from earlier work
[4] = tested on: skeletal muscle contraction; conditions: background, myasthenia gravis; cited from earlier work
[5] = systemic use; cited from earlier work
[6] = Stability of Physostigmine Free Base in Aqueous Solution (and in ethanol, isopropyl myristate), HPLC; type: physicochemical
Protocol: Relative stability of physostigmine free base in neutral or alkaline solution was determined as follows. Methanolic solution of physostigmine free base was acidified with a few drops of hydrochloric acid to lower the pH to about 3-6. […] Analysis was performed using HPLC Nova Pak 4-C18 column and a mobile phase consisting of:
0.63 g 85% Phosphorous Acid
0.96 g Sodium pentasulphonate
In the same manner, stability of physostigmine free base in neutral or slightly acidified water was determined and is shown in FIG. 2. […] In ethanol solution, 5% of the physostigmine free base was lost after 7 days and 10% after 27 days. At this rate of degradation, a patch would have lost 72% of its active ingredient in one year and 92% in two years.

[7] = Stability of Physostigmine Free Base in Polymer Matrix (patch storage, HPLC recovery); type: physicochemical; conditions: for Weight of Physostigmine free base Recovered: polyurethane patch, n = 3
Protocol: Increased stability of physostigmine free base in polymer matrices over solutions is shown in the following experiments. Patches containing physostigmine free base in a polymer matrix were prepared by dissolving 18 g of a polyether based polyurethane produced by Dow under the name Pellethane™ grade 2363-80AE, 2.0 g physostigmine free base and 2.0 g isopropyl myristate in 80 g THF. The solution was allowed to stand until clear. A second identical lot of polymer/drug solution was prepared containing 0.02 g of acetyl cystine. Clear solutions were cast onto the reverse side of a polyester-based release liner available from 3M Company of Minneapolis under the trade name Scotch™ 1002. After evaporation of the THF solvent, the liquid cast film of 2000 μm produced a dry matrix film 200-230 μm thick. Patches with an area of 7.9 cm^2 were cut from these laminated structures, packaged in polyethylene foil pouches and stored at room temperature and at 45° C.
Three patches from each lot were tested for physostigmine free base content immediately after manufacture and after 7 and 25 days of storage at room temperature and at 45° C. Once the backing was removed from the patch, the drug-containing film was weighed and then dissolved in 25 g of THF, followed by dilution with 25 g on methanol. Precipitated Pellethane™ was filtered from the solution before injection into the HPLC. Average amounts of physostigmine free base recovered from the patches, with and without acetyl cysteine, are given in Table I. Theoretical drug loadings were 17.2 and 16.2 mg for the stabilized and unstabilized patches, respectively. Scatter in the weight data can be attributed to variation in film weights and analytical errors amounting to as much as ±10%.

[8] = tested on: skin of rabbits; experiment: In Vivo Test of Physostigmine Free Base Patches (rabbit skin flux, 23 hours)
Protocol: Pellethane™ 2363-80AE (24.4 g) was added to a solution of 101.3 g of THF containing 2.903 g of physostigmine free base and 2.951 g of isopropyl myristate and stirred until a clear solution was formed. After evaporation of the THF solvent, the liquid cast film of 2000 μm produced a dry matrix film 180-230 μm thick. A solution of Avery adhesive 460, containing 10 wt % isopropyl myristate was cast on the drug/polymer matrix film to produce an adhesive layer approximately 801 μm thick. The film was finally overlaid with a release liner film 1022 available from 3M Company and patches with an area of 7.92 cm^2 were cut from the laminated structure. These patches were weighed, heat sealed into polyethylene-foil pouches and stored until use.
The patches were then placed on the skin of rabbits from which the hair had been carefully clipped, after 23 hours, the patches were removed and the in vivo skin fluxes determined and summarized in Table II.

[9] = individual patch (patch 1-12), 23 hours on rabbit skin

In the case of `CNC(=O)Oc1ccc2c(c1)[C@]1(C)CCN(C)[C@@H]1N2C` [Physostigmine], the “drug blood levels for multiple oral doses” value [1] is listed as “typical variations in blood concentration ranging from a maxima above the required level (and possibly in the toxic range) to a minima which may be below the effective dose”, the “therapeutic effects on tardive dyskinesia” value [2] is listed as “positive therapeutic effects on tardive dyskinesia” and the “retrieval of information from long-term memory” value [3] is listed as “improved”. For the same molecule, the “storage of information into long-term memory” value [3] was “significantly enhanced storage of information into long-term memory”, the “strength of muscular contraction” value [4] was “increased strength of muscular contraction” and the therapeutic window [5] was “narrow therapeutic window”.
With `CNC(=O)Oc1ccc2c(c1)[C@]1(C)CCN(C)[C@@H]1N2C` [Physostigmine free base] the degraded at 168 h ([6]; ethanol solution, after 7 days, read-out: physostigmine free base lost in ethanol solution) was 5%, the degraded at 648 h ([6]; ethanol solution, after 27 days, read-out: physostigmine free base lost in ethanol solution) was 10% and the “appearance of degradation (pink solution, rubreserine)” value ([6]; methanolic solution acidified with HCl to pH about 3-6, after one or two hours) was “became pink due to accumulation of the degradation product rubreserine; also recorded: appearance of degradation products of the pink solution”. For the same molecule, the “loss of initial drug in neutral solution” value ([6]; neutral water, within 30 days, same storage conditions, FIG. 2) was “degrades rapidly with more than half of the initial drug gone”, the “stability in slightly acidified water” value ([6]; room temperature, pH 3, FIG. 2) was “more stable, and slightly pink” and the “rate of degradation in ethanol and isopropyl myristate” value ([6]; solvents ethanol and isopropyl myristate, compared with unbuffered and acidified water) was “slower than with unbuffered water but faster than with acidified water”. The discoloration of patches ([7]; 25 days at 45° C.) was “slightly discolored”, the “Weight of Physostigmine free base Recovered” value ([7]; No Preservative, 45° C., 0 days) was 15.0 mg and the “Weight of Physostigmine free base Recovered” value ([7]; No Preservative, 45° C., 7 days) was 16.8 mg. For the same molecule, the “Weight of Physostigmine free base Recovered” value ([7]; No Preservative, 45° C., 25 days) was 18.5 mg, the “Weight of Physostigmine free base Recovered” value ([7]; No Preservative, Room Temperature, 0 days) was 15.0 mg and the “Weight of Physostigmine free base Recovered” value ([7]; No Preservative, Room Temperature, 7 days) was 16.5 mg. For the same molecule, the “Weight of Physostigmine free base Recovered” value ([7]; No Preservative, Room Temperature, 25 days) was 16.8 mg, the “Weight of Physostigmine free base Recovered” value ([7]; With Preservative, 45° C., 0 days) was 15.1 mg and the “Weight of Physostigmine free base Recovered” value ([7]; With Preservative, 45° C., 7 days) was 16.8 mg. For the same molecule, the “Weight of Physostigmine free base Recovered” value ([7]; With Preservative, 45° C., 25 days) was 16.8 mg, the “Weight of Physostigmine free base Recovered” value ([7]; With Preservative, Room Temperature, 0 days) was 15.1 mg and the “Weight of Physostigmine free base Recovered” value ([7]; With Preservative, Room Temperature, 7 days) was 17.3 mg. For the same molecule, the “Weight of Physostigmine free base Recovered” value ([7]; With Preservative, Room Temperature, 25 days) was 16.8 mg, the “additional peaks in HPLC analysis” value ([7]; patches stored 25 days at 45° C.) was “no additional peaks were observed” and the “physostigmine free base loss during storage” value ([7]; polyurethane patches, room temperature or 45° C., up to 25 days) was “no measurable physostigmine free base loss”. The “Drug Delivered ΔMass” value ([8]; Average of patches 1-12) was 14.0 mg, the “Drug Delivered ΔMass (%)” value ([8]; Average of patches 1-12) was 69% and the “Drug Remaining in Patch” value ([8]; Average of patches 1-12) was 6.3 mg. For the same molecule, the ΔMass/time ([8]; Average of patches 1-12) was 0.61 mg/h, the “Average Total Flux” value ([8]; Average of patches 1-12, patch area 7.9 cm^2) was 77 μg/cm^2 · hr and the “Drug Delivered ΔMass” value [8, 9] was 15.0 mg and 14.0 mg and 15.7 mg and 12.0 mg and 16.0 mg and 12.8 mg and 14.3 mg and 13.7 mg and 15.2 mg and 12.7 mg and 11.8 mg. For the same molecule, the “Drug Delivered ΔMass (%)” value [8, 9] was 67% and 69% and 70% and 71% and 68%, the ΔMass/time [8, 9] was 0.65 mg/h and 0.61 mg/h and 0.68 mg/h and 0.52 mg/h and 0.70 mg/h and 0.56 mg/h and 0.62 mg/h and 0.60 mg/h and 0.66 mg/h and 0.55 mg/h and 0.51 mg/h and the “Drug Remaining in Patch” value ([8]; individual patch (patch 1-12), 23 hours on rabbit skin, measured by HPLC) was 7.4 mg and 6.8 mg and 7.1 mg and 5.2 mg and 6.7 mg and 6.2 mg and 6.5 mg and 5.7 mg and 4.9 mg. The “Average Total Flux” value ([8]; individual patch (patch 1-12), patch area 7.9 cm^2, 23 hours on rabbit skin) was 82 μg/cm^2 · hr and 77 μg/cm^2 · hr and 86 μg/cm^2 · hr and 66 μg/cm^2 · hr and 88 μg/cm^2 · hr and 71 μg/cm^2 · hr and 78 μg/cm^2 · hr and 75 μg/cm^2 · hr and 83 μg/cm^2 · hr and 70 μg/cm^2 · hr and 64 μg/cm^2 · hr, the drug delivered ([8]; over the 23 hour period) was “approximately 70%” and the “Average Physostigmine free base flux” value ([8]; text after Table II) was 160 μg/cm^2 ·h.
